One experiment has as its system brain, spinal cord, and DRG of the NHPs. Kind of experiment: NGS fold enrichment of synthetic library (passage 3) in NHPs, first cross-species screen. To be noted: synthetic library passage 3, intravenous, RNA NGS, brain of NHPs, relative to wild-type AAV9. Type of experiment: in vivo, cynomolgus macaques (Macaca fascicularis). A digest of the protocol: (§1)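 Synthetic capsid library (passage 3) was given intravenously […] to NHPs aged 2-4 years and to BALB/c and C57Bl/6 mice (n=3 each, 6-8 weeks). After about 28 days in vivo, tissue RNA was RT-PCR amplified and NGS-sequenced; values are fold enrichment per variant relative to wild-type AAV9.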
On to GSGQNQQLKENRST, for which the “Fold enrichment over AAV9 in the brain of NHPs” value was 2.765 fold.
On the same count and under the same terms, under GSGQHSPHALNQQT stands 1.064 fold; under GSGQNQQSGTFLST, 1.090 fold.
On the same count and under the same terms, the same measure for GARIQNASGQKQQT: 2.300 fold; for GSGQNQQTSMSNAT: 1.501 fold; for GSGDSITGKQNQQT: 2.112 fold.
For the sequence GSGQNQQTGNPKHT, the “Fold enrichment over AAV9 in the brain of NHPs” value is 1.504 fold.
As to GSGQNQGRAHPMQT, the “Fold enrichment over AAV9 in the brain of NHPs” value was determined as 1.007 fold.
On the same count and under the same terms, the same measure for GSGLTLSATQNQQT: 1.901 fold; for GSGQNQHSVHNDQT: 1.428 fold.
Still for that read-out and setting: under GSGQRSPVLPNQQT stands 2.369 fold; under GTDFGRQSSQNQQT, 2.346 fold.
On to GSGHMSDLRQNQQT, for which the “Fold enrichment over AAV9 in the brain of NHPs” value turned out to be 1.073 fold.
On to GSGHLPQSAQNQQT, for which the “Fold enrichment over AAV9 in the brain of NHPs” value turned out to be 2.803 fold.
For GGGDLGRSSQNQQT, the “Fold enrichment over AAV9 in the brain of NHPs” value is listed as 3.036 fold.
For GSGQNHGLQSGQQT, the “Fold enrichment over AAV9 in the brain of NHPs” value stood at 1.530 fold.
Take GATLQVHSGQNQQT: the “Fold enrichment over AAV9 in the brain of NHPs” value is listed as 2.122 fold.
On to GSGQNQAVHNKSQT, for which the “Fold enrichment over AAV9 in the brain of NHPs” value is on record as 1.956 fold.

The experiment is the same for the next values; noted with them: synthetic library passage 3, intravenous, RNA NGS, spinal cord of NHPs, relative to wild-type AAV9.
Regarding GSGQNQQLKENRST, the “Fold enrichment over AAV9 in the spinal cord of NHPs” value stood at 0.062 fold.
Still for that read-out and setting: the same measure for GSGQHSPHALNQQT: 1.412 fold; for GSGQNQQSGTFLST: 5.673 fold.
On to GARIQNASGQKQQT, for which the “Fold enrichment over AAV9 in the spinal cord of NHPs” value worked out at 2.103 fold.
GSGQNQQTSMSNAT: the “Fold enrichment over AAV9 in the spinal cord of NHPs” value stood at 6.766 fold.
Still for that read-out and setting: under GSGDSITGKQNQQT stands 1.295 fold; under GSGQNQQTGNPKHT, 5.973 fold; under GSGQNQGRAHPMQT, 2.364 fold.
Take GSGLTLSATQNQQT: the “Fold enrichment over AAV9 in the spinal cord of NHPs” value came out at 0.193 fold.
As to GSGQNQHSVHNDQT, the “Fold enrichment over AAV9 in the spinal cord of NHPs” value is reported as 0.000 fold.
Turning to GSGQRSPVLPNQQT, the “Fold enrichment over AAV9 in the spinal cord of NHPs” value was found to be 6.230 fold.
The same measure, in the same setting: the same measure for GTDFGRQSSQNQQT: 3.196 fold; for GSGHMSDLRQNQQT: 4.291 fold.
In the case of GSGHLPQSAQNQQT, the “Fold enrichment over AAV9 in the spinal cord of NHPs” value is 7.828 fold.
Same read-out and setting: under GGGDLGRSSQNQQT stands 4.830 fold; under GSGQNHGLQSGQQT, 4.960 fold; under GATLQVHSGQNQQT, 2.219 fold.
For the sequence GSGQNQAVHNKSQT, the “Fold enrichment over AAV9 in the spinal cord of NHPs” value is reported as 3.791 fold.

The experiment is the same for the next values; noted with them: synthetic library passage 3, intravenous, RNA from brain of NHPs, NGS, relative to wild-type AAV9.
With GSGFSHSMGKNQQT, the “Fold enrichment over AAV9 in the brain of NHPs” value is given as 1.188 fold.
Still for that read-out and setting: under GSGSTHSKAQNQQT stands 1.410 fold.
As for GAFHLAASGQNQQT, the “Fold enrichment over AAV9 in the brain of NHPs” value stood at 1.369 fold.
In the case of GSGQALSSSGNQQT, the “Fold enrichment over AAV9 in the brain of NHPs” value worked out at 1.351 fold.
The same measure, in the same setting: the same measure for GSGQNQRLHGVDQT: 1.318 fold.
On the same count and under the same terms, the same measure for GSGQNQQIPHVHQT: 1.409 fold.
On the same count and under the same terms, under GSGQNQRASILVQT stands 1.162 fold; under GSQSTLGLGQNQQT, 1.204 fold.
Regarding GSSVNSMIGQNQQT, the “Fold enrichment over AAV9 in the brain of NHPs” value is 1.239 fold.
Take GSGQNQQPPLATRT: the “Fold enrichment over AAV9 in the brain of NHPs” value is 1.386 fold.
The same measure, in the same setting: under GSGKNQTPIPKGQT stands 1.339 fold.
Regarding GSGAVHLTAQNQQT, the “Fold enrichment over AAV9 in the brain of NHPs” value stood at 1.306 fold.
On to GSGQNQQTMLGKPC, for which the “Fold enrichment over AAV9 in the brain of NHPs” value came to 1.125 fold.
For the sequence GSLYGQSLGQNQQT, the “Fold enrichment over AAV9 in the brain of NHPs” value came out at 1.348 fold.

Staying with this experiment, now noted: synthetic library passage 3, intravenous, RNA from spinal cord of NHPs, NGS, relative to wild-type AAV9.
As for GSGFSHSMGKNQQT, the “Fold enrichment over AAV9 in the spinal cord of NHPs” value amounted to 9.809 fold.
Same read-out and setting: under GSGSTHSKAQNQQT stands 0.515 fold; under GAFHLAASGQNQQT, 18.165 fold; under GSGQALSSSGNQQT, 6.860 fold.
Same read-out and setting: under GSGQNQRLHGVDQT stands 4.655 fold.
The same measure, in the same setting: under GSGQNQQIPHVHQT stands 0.768 fold; under GSGQNQRASILVQT, 3.632 fold; under GSQSTLGLGQNQQT, 3.246 fold.
As for GSSVNSMIGQNQQT, the “Fold enrichment over AAV9 in the spinal cord of NHPs” value is given as 0.000 fold.
Still for that read-out and setting: under GSGQNQQPPLATRT stands 2.295 fold.
Same read-out and setting: the same measure for GSGKNQTPIPKGQT: 5.077 fold; for GSGAVHLTAQNQQT: 1.668 fold; for GSGQNQQTMLGKPC: 0.047 fold.
The same measure, in the same setting: under GSLYGQSLGQNQQT stands 11.248 fold.

A further experiment has as its system brain. Kind of experiment: NGS fold enrichment of synthetic library (passage 3) in BALB/c mice, first cross-species screen. Type of experiment: in vivo. As to conditions: synthetic library passage 3, intravenous, RNA NGS, brain of BALB/c mice, relative to wild-type AAV9. The method, boiled down:
as §1
Regarding GSGQNQQLKENRST, the “Fold enrichment over AAV9 in the brain of Mice (BALB/c)” value (“Fold enrichment over AAV9 … (BALB/c)” below) worked out at 1.118 fold.
Still for that read-out and setting: under GSGQHSPHALNQQT stands 0.573 fold.
Consider GSGQNQQSGTFLST, for which the “Fold enrichment over AAV9 … (BALB/c)” value came to 0.742 fold.
With GARIQNASGQKQQT, the “Fold enrichment over AAV9 … (BALB/c)” value was 1.039 fold.
On the same count and under the same terms, under GSGQNQQTSMSNAT stands 0.745 fold.
On the same count and under the same terms, the same measure for GSGDSITGKQNQQT: 0.306 fold; for GSGQNQQTGNPKHT: 1.139 fold; for GSGQNQGRAHPMQT: 0.453 fold.
Take GSGLTLSATQNQQT: the “Fold enrichment over AAV9 … (BALB/c)” value is 0.340 fold.
Regarding GSGQNQHSVHNDQT, the “Fold enrichment over AAV9 … (BALB/c)” value was found to be 0.515 fold.
The same measure, in the same setting: under GSGQRSPVLPNQQT stands 0.526 fold; under GTDFGRQSSQNQQT, 0.797 fold.
For GSGHMSDLRQNQQT, the “Fold enrichment over AAV9 … (BALB/c)” value came to 0.328 fold.
Same read-out and setting: under GSGHLPQSAQNQQT stands 0.496 fold; under GGGDLGRSSQNQQT, 0.539 fold.
Consider GSGQNHGLQSGQQT, for which the “Fold enrichment over AAV9 … (BALB/c)” value is recorded as 0.779 fold.
Take GATLQVHSGQNQQT: the “Fold enrichment over AAV9 … (BALB/c)” value is given as 0.545 fold.
GSGQNQAVHNKSQT: the “Fold enrichment over AAV9 … (BALB/c)” value came out at 1.083 fold.

The same experiment, now with this note: synthetic library passage 3, intravenous, RNA from brain of BALB/c mice, NGS, relative to wild-type AAV9.
Consider GSGFSHSMGKNQQT, for which the “Fold enrichment over AAV9 … (BALB/c)” value is 0.611 fold.
As to GSGSTHSKAQNQQT, the “Fold enrichment over AAV9 … (BALB/c)” value worked out at 0.801 fold.
As for GAFHLAASGQNQQT, the “Fold enrichment over AAV9 … (BALB/c)” value was 0.775 fold.
On the same count and under the same terms, the same measure for GSGQALSSSGNQQT: 0.931 fold; for GSGQNQRLHGVDQT: 0.341 fold.
On the same count and under the same terms, the same measure for GSGQNQQIPHVHQT: 0.218 fold.
Consider GSGQNQRASILVQT, for which the “Fold enrichment over AAV9 … (BALB/c)” value is reported as 0.569 fold.
For the sequence GSQSTLGLGQNQQT, the “Fold enrichment over AAV9 … (BALB/c)” value came out at 0.400 fold.
The same measure, in the same setting: the same measure for GSSVNSMIGQNQQT: 0.580 fold; for GSGQNQQPPLATRT: 0.287 fold; for GSGKNQTPIPKGQT: 1.154 fold.
On the same count and under the same terms, under GSGAVHLTAQNQQT stands 0.466 fold; under GSGQNQQTMLGKPC, 0.992 fold; under GSLYGQSLGQNQQT, 0.843 fold.

For a further experiment, the system named is brain. The experiment is described as follows: NGS fold enrichment of synthetic library (passage 3) in C57Bl/6 mice, first cross-species screen. Type of experiment: in vivo. To be noted: synthetic library passage 3, intravenous, RNA NGS, brain of C57Bl/6 mice, relative to wild-type AAV9. The method, boiled down: as §1
Regarding GSGQNQQLKENRST, the “Fold enrichment over AAV9 in the brain of Mice (C57Bl/6)” value (from here on “Fold enrichment over AAV9 … (C57Bl/6)”) came to 1.149 fold.
As for GSGQHSPHALNQQT, the “Fold enrichment over AAV9 … (C57Bl/6)” value came to 0.885 fold.
Same read-out and setting: the same measure for GSGQNQQSGTFLST: 1.021 fold; for GARIQNASGQKQQT: 1.220 fold.
On the same count and under the same terms, under GSGQNQQTSMSNAT stands 1.605 fold.
Same read-out and setting: under GSGDSITGKQNQQT stands 0.793 fold; under GSGQNQQTGNPKHT, 1.391 fold.
Consider GSGQNQGRAHPMQT, for which the “Fold enrichment over AAV9 … (C57Bl/6)” value was determined as 0.684 fold.
As to GSGLTLSATQNQQT, the “Fold enrichment over AAV9 … (C57Bl/6)” value is on record as 0.708 fold.
Still for that read-out and setting: the same measure for GSGQNQHSVHNDQT: 0.521 fold; for GSGQRSPVLPNQQT: 0.434 fold; for GTDFGRQSSQNQQT: 1.021 fold.
Regarding GSGHMSDLRQNQQT, the “Fold enrichment over AAV9 … (C57Bl/6)” value worked out at 0.555 fold.
Same read-out and setting: the same measure for GSGHLPQSAQNQQT: 0.826 fold.
Same read-out and setting: the same measure for GGGDLGRSSQNQQT: 0.916 fold; for GSGQNHGLQSGQQT: 0.938 fold.
For the sequence GATLQVHSGQNQQT, the “Fold enrichment over AAV9 … (C57Bl/6)” value amounted to 0.623 fold.
With GSGQNQAVHNKSQT, the “Fold enrichment over AAV9 … (C57Bl/6)” value turned out to be 1.465 fold.

The experiment is the same for the next values; noted with them: synthetic library passage 3, intravenous, RNA from brain of C57Bl/6 mice, NGS, relative to wild-type AAV9.
GSGFSHSMGKNQQT: the “Fold enrichment over AAV9 … (C57Bl/6)” value is 1.381 fold.
On to GSGSTHSKAQNQQT, for which the “Fold enrichment over AAV9 … (C57Bl/6)” value stood at 0.921 fold.
Still for that read-out and setting: the same measure for GAFHLAASGQNQQT: 0.994 fold.
Still for that read-out and setting: under GSGQALSSSGNQQT stands 0.894 fold.
Still for that read-out and setting: under GSGQNQRLHGVDQT stands 0.459 fold; under GSGQNQQIPHVHQT, 0.576 fold.
Consider GSGQNQRASILVQT, for which the “Fold enrichment over AAV9 … (C57Bl/6)” value came out at 0.531 fold.
On the same count and under the same terms, under GSQSTLGLGQNQQT stands 0.594 fold; under GSSVNSMIGQNQQT, 0.976 fold.
On the same count and under the same terms, the same measure for GSGQNQQPPLATRT: 0.593 fold; for GSGKNQTPIPKGQT: 1.306 fold; for GSGAVHLTAQNQQT: 0.541 fold.
Still for that read-out and setting: under GSGQNQQTMLGKPC stands 1.090 fold; under GSLYGQSLGQNQQT, 0.894 fold.

For the origin of these results see patent US20260250318A1, “COMPOSITIONS AND METHODS FOR CROSSING THE BLOOD BRAIN BARRIER” (VOYAGER THERAPEUTICS, INC., priority 2022, published 2026).
